Data published in patent US9771369B2, “Compounds and methods for kinase modulation, and indications therefor” (Plexxikon Inc., priority 2014, dated 2017).

Experiments:
[1] = tested on: BaF3-FL KIT D816V or BaF3-FL KIT V560G/D816V cell line; assay: Cell-based assays of c-Kit mutant kinase activity (cell proliferation, ATPlite); details: at least one of the c-kit cell assays of Example 7
Method in brief: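 BaF3 cells dependent on transfected full-length human KIT D816V or V560G/D816V (pCI-Neo, CMV promoter) were seeded at 1×10^4 cells/well and exposed to 8-point 1:3 dilutions from 10 μM top (0.2% DMSO) for three days at 37° C. ATPlite luminescence gave cell number; IC50 from concentration-response.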

c-kit mutant D816V = c-kit mutant D816V (Homo sapiens (Human), UniProt P10721, D816V/DEL694-753); assay: c-Kit mutant D816V biochemical assay (AlphaScreen kinase activity)
Chain of c-kit mutant D816V (P10721 other isoform, or with tags, fused parts or gaps D816V/del 694-753): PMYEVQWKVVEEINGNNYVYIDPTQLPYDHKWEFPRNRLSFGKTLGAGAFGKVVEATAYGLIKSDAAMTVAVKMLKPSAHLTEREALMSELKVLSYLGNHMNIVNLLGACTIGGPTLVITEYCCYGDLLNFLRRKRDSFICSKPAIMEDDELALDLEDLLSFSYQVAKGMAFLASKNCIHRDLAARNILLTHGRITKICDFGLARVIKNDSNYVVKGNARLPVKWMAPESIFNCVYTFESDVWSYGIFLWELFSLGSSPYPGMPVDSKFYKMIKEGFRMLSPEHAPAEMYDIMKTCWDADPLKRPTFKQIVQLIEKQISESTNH
Method in brief: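 AlphaScreen with streptavidin donor and PY30 acceptor beads read phosphotyrosine on biotin-(E4Y)10 substrate (30 nM). Enzyme: E. coli-expressed N-His c-Kit D816V, residues 551-934 lacking kinase insert 694-753. Reaction 30 min at room temperature, 10 μM ATP, 5% DMSO; IC50 fitted over 8 three-fold dilutions.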

Cc1nc(C2(C)CCN(c3ncnc4[nH]c(-c5ccc(NS(C)(=O)=O)cc5)cc34)CC2)[nH]c1-c1ccc(OC(F)F)cc1 [P-3254, N-[4-[4-[4-[5-[4-(difluoromethoxy)phenyl]-4-methyl-1H-imidazol-2-yl]-4-methyl-1-piperidyl]-7H-pyrrolo[2,3-d]pyrimidin-6-yl]phenyl]methanesulfonamide] gave an IC50 [1] of less than 10000 nM and an IC50 (c-kit mutant D816V) of 0.0001 to 1 µM.
Cc1nc(C2(C)CCN(c3ncnc4[nH]c(-c5ccc(C#N)nc5)cc34)CC2)[nH]c1-c1cccc(OC(F)F)c1 [P-3255, 5-[4-[4-[5-[3-(difluoromethoxy)phenyl]-4-methyl-1H-imidazol-2-yl]-4-methyl-1-piperidyl]-7H-pyrrolo[2,3-d]pyrimidin-6-yl]pyridine-2-carbonitrile] showed an IC50 [1] of less than 10000 nM and an IC50 (c-kit mutant D816V) of 0.0001 to 1 µM.
In the case of COc1cccc(-c2[nH]c(C3(C)CCN(c4ncnc5[nH]c(-c6ccc(C#N)nc6)cc45)CC3)nc2C)c1 [P-3256, 5-[4-[4-[5-(3-methoxyphenyl)-4-methyl-1H-imidazol-2-yl]-4-methyl-1-piperidyl]-7H-pyrrolo[2,3-d]pyrimidin-6-yl]pyridine-2-carbonitrile], the IC50 [1] is reported as less than 10000 nM and the IC50 (c-kit mutant D816V) is reported as 0.0001 to 1 µM.
